Test results from the supplement of paper PMC10949913.

Assays:
Settings in all cases: 48 h
NCI-H295R [1] = test: AC50 viability; higher = less potent
Summary of the method: (§1)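 Concentration-response curves were fitted to obtain AC50 and area under the curve, keeping inhibitory or non-responding curve classes only. Data came from CellTiter-Glo luminescence, normalised per plate to vehicle and empty-well controls, in three adrenocortical carcinoma cell lines. These were treated in 1,536-well plates with library compounds at 11 concentrations and read after 48 h.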

NCI-H295R [2] = test: area under concentration-response curve (viability) (AUC (a.u.)); higher = less active
Summary of the method: as §1

CU-ACC1 = test: as above
Summary of the method: as §1

CU-ACC2 = test: as above
Summary of the method: as §1

Row | SMILES | AC50 viability (NCI-H295R [1]) [µM] | area under concentration-response curve (NCI-H295R [2]) | area under concentration-response curve (CU-ACC1) | area under concentration-response curve (CU-ACC2)
1 | COc1cccc(-c2cc(F)ccc2C2Cc3nc(N)nc(C)c3C(=O)N2)n1 (configuration not stated) | 0.59 | 403 | 379 | 413
2 | CCn1c(-c2nonc2N)nc2c(C#CC(C)(C)O)ncc(OC[C@H]3CCCNC3)c21 | 4.17 | 442 | 369 | 524
3 | COc1ccc(-c2ccc3c(N4CCOC[C@@H]4C)nc(N4CCOC[C@@H]4C)nc3n2)cc1CO | 0.417 | 387 | 431 | 485
4 | CC(=O)N1CCN(c2ccc(OC[C@H]3CO[C@](Cn4ccnc4)(c4ccc(Cl)cc4Cl)O3)cc2)CC1 | 20.9 | 342 |  | 
5 | COc1ncc(-c2ccc3nccc(-c4ccnnc4)c3c2)cc1N[S+](=O)([O-])c1ccc(F)cc1F | 0.059 | 362 | 362 | 441
6 | COC(=O)Nc1nc2cc(C(=O)c3ccccc3)ccc2[nH]1 | 0.417 | 412 | 440 | 475
7 | Cc1ncc(NC(=O)c2ccc(CN3CCN(C)CC3)c(C(F)(F)F)c2)cc1Nc1nccc(-c2cccnc2)n1 | 23.5 | 493 |  | 
8 | COc1c(C)c2c(c(O)c1C/C=C(\C)CCC(=O)OCCN1CCOCC1)C(=O)OC2 | 0.468 | 429 |  | 
9 | CC[C@H](C)[C@@H]([C@@H](CC(=O)N1CCC[C@H]1[C@H](OC)[C@@H](C)C(=O)N[C@@H](Cc1ccccc1)c1nccs1)OC)N(C)C(=O)[C@@H](NC(=O)[C@H](C(C)C)N(C)C)C(C)C | 33.2 | 344 |  | 363
10 | Cc1cncc2cccc([S+](=O)([O-])N3CCCN(C(=O)CN)C[C@@H]3C)c12 | 16.6 | 433 | 465 | 
11 | Cc1ccc([C@@H]2O[C@H](CO)[C@@H](O)[C@H](O)[C@H]2O)cc1Cc1ccc(-c2ccc(F)cc2)s1 | 23.5 | 521 |  | 
12 | CN(C)CC[C@H](CSc1ccccc1)Nc1ccc([S+](=O)([O-])NC(=O)c2ccc(N3CCN(Cc4ccccc4-c4ccc(Cl)cc4)CC3)cc2)cc1[N+](=O)[O-] | 18.6 | 535 |  | 
13 | C[C@@H]1C[C@H]2[C@@H]3CC\C4=C\C(=O)\C=C/[C@]4(C)[C@@]3(Cl)[C@@H](O)C[C@]2(C)[C@@]1(OC(=O)C5=CC=CO5)C(=O)CCl | 37.2 | 580 |  | 
14 | NCC(=O)Nc1ccc(-n2nc(C(F)(F)F)cc2-c2ccc3c(ccc4ccccc43)c2)cc1 | 23.5 | 551 |  | 
15 | O=C(c1ccc(OCCN2CCCCC2)cc1)c1c(-c2ccc(O)cc2)sc2cc(O)ccc12 | 23.5 | 557 |  | 
16 | CCNC(=O)Nc1ccc(-c2nc3c(c(N4CCOC[C@@H]4C)n2)CCN(C2COC2)C3)cc1 | 4.68 | 520 |  | 561
17 | CC[C@]12\C=C/CN3CC[C@]4([C@@H](N(C)C5=CC(=C(C=C45)[C@]6(C[C@H]7C[C@H](CN(C7)CC8=C6[NH]C9=C8C=CC=C9)C(C)(F)F)C(=O)OC)OC)[C@](O)([C@@H]1OC(C)=O)C(=O)OC)[C@H]23 | 0.698 | 527 | 538 | 
18 | Cc1ccc(Sc2ccccc2N2CCNCC2)c(C)c1 | 20.9 | 455 |  | 
19 | CCOC(=O)[C@@H](N)Cc1ccc(-c2cc(O[C@H](c3ccc(Cl)cc3-n3ccc(C)n3)C(F)(F)F)nc(N)n2)cc1 | 20.9 | 506 |  | 
20 | Cc1ccc(Nc2nnc(Cc3ccncc3)c3ccccc23)cc1Br | 18.6 | 438 |  | 
21 | CSc1ccc(C(=O)/C=C/c2cc(C)c(OC(C)(C)C(=O)O)c(C)c2)cc1 | 48.1 | 571 | 540 | 
22 | COc1ccc(C(=O)c2c(C)n(CCN3CCOCC3)c3cc(I)ccc23)cc1 | 8.33 | 392 | 317 | 
23 | CCN(CC)CCCCNc1ncc2cc(-c3cc(OC)cc(OC)c3)c(NC(=O)NC(C)(C)C)nc2n1 | 23.5 | 476 |  | 
24 | CC(C)[C@](O)(c1ccc2cc(OC(F)F)c(OC(F)F)cc2c1)c1c[nH]nn1 | 23.5 | 532 | 492 | 
25 | CC(C)(O)CNc1nc(Nc2ccnc(C(F)(F)F)c2)nc(-c2cccc(C(F)(F)F)n2)n1 | 16.6 | 417 | 402 | 

Row | SMILES | AC50 viability (NCI-H295R [1]) [µM] | area under concentration-response curve (NCI-H295R [2]) | area under concentration-response curve (CU-ACC1) | area under concentration-response curve (CU-ACC2)
26 | CN(C)CCNC(=O)NC[C@H]1CC[C@@H]2[C@H](O1)c1cc(C(F)(F)F)ccc1N[C@H]2c1ccccc1 | 5.9 | 437 |  | 
27 | O=C(Nc1nc2cccc(-c3ccc(CN4CC[S+](=O)([O-])CC4)cc3)n2n1)C1CC1 | 18.6 | 535 |  | 
28 | COc1cc(Nc2ncc(F)c(Nc3ccc4c(n3)N(COP(=O)(O)O)C(=O)C(C)(C)O4)n2)cc(OC)c1OC | 14.8 | 512 |  | 
29 | CON(C)C(=O)N1/N=C(S[C@@]1(CCCN)C2=CC=CC=C2)/C3=CC(=CC=C3F)F | 2.09 | 348 |  | 517
30 | COc1cc(Oc2ccnc3cc(OC)c(OC)cc23)ccc1NC(=O)NC(C)c1nccs1 (configuration not stated) | 14.8 | 540 |  | 
31 | CN(C)CC(=O)N1CCC(CC1)C2=CC=C(NC(=O)C3=NC(=C[NH]3)C#N)C(=C2)\C4=C\CCCC4 | 23.5 | 553 |  | 
32 | Cc1cc(C(=O)N2CCN(c3cccc(Cl)c3)CC2)n(-c2ccccc2)n1 | 2.95 | 515 |  | 648
33 | COC(=O)Nc1nc2cc([S+]([O-])c3ccccc3)ccc2[nH]1 (configuration not stated) | 11.8 | 522 |  | 
34 | NC(=O)[C@H]1CCS[C@@H]2C[C@]3(CCCN3C(=O)Cc3ccc(NC(=O)COc4ccc(Cl)cc4Cl)cc3)C(=O)N12 | 14.8 | 483 |  | 528
35 | Clc1ccc(CCC(Cn2ccnc2)Sc2c(Cl)cccc2Cl)cc1 (configuration not stated) | 33.2 | 491 |  | 
36 | Cc1ccc(-c2nn(C(C)(C)CNC(=O)c3ccncc3)c3ncnc(N)c23)cc1 | 16.6 | 512 | 515 | 
37 | CCN(CC)C(=O)C1=CC=C(C=C1)C/2=C/C3(CCNCC3)OC4=CC=CC(=C24)O | 20.9 | 404 |  | 
38 | CCCCc1oc2ccccc2c1C(=O)c1cc(I)c(OCCN(CC)CC)c(I)c1 | 23.5 | 479 |  | 
39 | CC1(C)C(=O)N(c2ccc(C#N)c(C(F)(F)F)c2)C(=S)N1Cc1ccc(-c2c[nH]nn2)cc1 | 20.9 | 483 | 472 | 
40 | CCOc1cc2c(c(F)c1OCC)C(=N)N(CC(=O)c1cc(N3CCOCC3)c(OC)c(C(C)(C)C)c1)C2 | 20.9 | 492 |  | 
41 | CCN(C)[S+](=O)([O-])Nc1ccc(F)c(C(=O)c2c[nH]c3ncc(-c4cnc(C5CC5)nc4)cc23)c1F | 18.6 | 502 |  | 
42 | C[C@@H]1CCNC(=O)c2cc3ccc(C(=O)Nc4nc5ccccc5n4CCCN(C)C)cc3n21 | 18.6 | 553 | 513 | 
43 | CCN(CC)CCCCNc1ncc2c(n1)N(C)C(=O)N(c1c(Cl)c(OC)cc(OC)c1Cl)C2 | 16.6 | 524 | 520 | 
44 | Clc1cccc(-c2ccc(-c3nnc(CCCc4ccc5cccnc5n4)o3)cc2)c1 |  | 594 | 547 | 627
45 | CC(=O)OCC(=O)[C@@]12OC(C)(C)O[C@@H]1C[C@H]3[C@@H]4C[C@H](F)C/5=C/C(=O)/C=C\[C@]5(C)[C@@]4(F)[C@@H](O)C[C@]23C |  | 519 | 439 | 528
46 | CN1\C(=C(\O)C2=CC=CC=C2[S+]1([O-])=O)C(=O)NC3=NC=C(C)S3 |  | 511 | 461 | 523
47 | COC(=O)CCC1=C(C)C2=CC3=NC(=CC4=C(C)C(=C([NH]4)C=C\5N=C(C=C1[NH]2)\C(=C5C)CCC(O)=O)C=C)\C6=C\C=C(/[C@@H](C(=O)OC)[C@@]36C)C(=O)OC |  | 462 | 438 | 416
48 | CC/1=C(/C(CC(=O)N1)C2=CC=C(C=C2)C(F)(F)F)C(=O)NC3=C(F)C=C4[NH]N=CC4=C3 (configuration not stated) |  | 557 | 477 | 560
49 | Nc1nc(OCc2cc(Br)cs2)c2[nH]cnc2n1 |  | 552 | 516 | 616
50 | CN1\C(=C(\O)C2=C(C=CC=C2)[S+]1([O-])=O)C(=O)NC3=CC=CC=N3 |  | 464 | 432 | 495
